Assay results published in patent US8530493B2, “Indolopyridines as Eg5 kinesin modulators” (4SC AG, priority 2006, dated 2013).

test system: RKO p21 uninduced (proliferating) colon adenocarcinoma cells; test: Alamar Blue cell viability assay, RKO p21 uninduced (proliferating); format: cell-based; conditions: Homo sapiens, Table B3, anti-proliferative/cytotoxic activity, 72 hours, read-out: −log EC50 RKO p21 uninduced (proliferating) (converted)
Outline: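 RKO p21 or p27 subclones grown without Ponasterone A, i.e. proliferating, exposed 24 h after seeding to semi-log compound dilutions in DMEM/10% FCS (1% DMSO controls) for 72 h at 37° C. Alamar Blue fluorescence (544/590 nm) read relative to untreated cells; EC50 from dose-response curves, given as −log EC50 (mol/l).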

Row | SMILES | EC50
1 | COCCNCCN1C(=O)N2[C@H](c3cccc(O)c3)c3[nH]c4cc(F)c(OC)cc4c3C[C@@]2(C)C1=O (racemic) [Example 253, (3aSR,10RS)-7-Fluoro-10-(3-hydroxy-phenyl)-6-methoxy-2-[2-(2-methoxy-ethylamino)-ethyl]-3a-methyl-3a,4,9,10-tetrahydro-2,9,10a-triaza-cyclopenta[b]fluorene-1,3-dione] | 39.8 to 251 nM
2 | CNCCCN1C(=O)N2[C@H](c3cccc(O)c3)c3[nH]c4ccc(OC(F)F)cc4c3C[C@@]2(C)C1=O (racemic) [Example 203, (3aSR,10RS)-6-(1,1-Difluoro-methoxy)-10-(3-hydroxy-phenyl)-3a-methyl-2-(3-methylamino-propyl)-3a,4,9,10-tetrahydro-2,9,10a-triaza-cyclopenta[b]fluorene-1,3-dione] | 39.8 to 251 nM
3 | CCN(CCCN1C(=O)N2[C@H](c3cccc(O)c3)c3[nH]c4ccc(Cl)cc4c3C[C@@]2(C)C1=O)CCOC (racemic) [Example 397, (3aSR,10RS)-6-Chloro-2-{3-[ethyl-(2-methoxy-ethyl)-amino]-propyl}-10-(3-hydroxy-phenyl)-3a-methyl-3a,4,9,10-tetrahydro-2,9,10a-triaza-cyclopenta[b]fluorene-1,3-dione] | ≤ 39.8 nM
4 | CN1CCN(CCCN2C(=O)N3[C@H](c4cccc(O)c4)c4[nH]c5ccc(Br)cc5c4C[C@@]3(C)C2=O)CC1 (racemic) [Example 375, (3aSR,10RS)-6-Bromo-10-(3-hydroxy-phenyl)-3a-methyl-2-[3-(4-methyl-piperazin-1-yl)-propyl]-3a,4,9,10-tetrahydro-2,9,10a-triaza-cyclopenta[b]fluorene-1,3-dione] | ≤ 39.8 nM
5 | CC(=O)N1CCN(CCN2C(=O)N3[C@H](c4cccc(O)c4)c4[nH]c5ccc(Br)cc5c4C[C@@]3(C)C2=O)CC1 (racemic) [Example 387, (3aSR,10RS)-2-[2-(4-Acetyl-piperazin-1-yl)-ethyl]-6-bromo-10-(3-hydroxy-phenyl)-3a-methyl-3a,4,9,10-tetrahydro-2,9,10a-triaza-cyclopenta[b]fluorene-1,3-dione] | ≤ 39.8 nM
6 | CC(C)N(C)CCCN1C(=O)N2[C@H](c3cccc(O)c3)c3[nH]c4ccc(Br)cc4c3C[C@@]2(C)C1=O (racemic) [Example 218, (3aSR,10RS)-6-Bromo-10-(3-hydroxy-phenyl)-2-[3-(isopropyl-methyl-amino)-propyl]-3a-methyl-3a,4,9,10-tetrahydro-2,9,10a-triaza-cyclopenta[b]fluorene-1,3-dione] | ≤ 39.8 nM
7 | CCOc1ccc2[nH]c3c(c2c1)C[C@@]1(C)C(=O)N(CCN(CC)CCOC)C(=O)N1[C@@H]3c1cccc(O)c1 (racemic) [Example 299, (3aSR,10RS)-6-Ethoxy-2-{2-[ethyl-(2-methoxy-ethyl)-amino]-ethyl}-10-(3-hydroxy-phenyl)-3a-methyl-3a,4,9,10-tetrahydro-2,9,10a-triaza-cyclopenta[b]fluorene-1,3-dione] | 39.8 to 251 nM
8 | CCOc1ccc2[nH]c3c(c2c1)C[C@@]1(C)C(=O)N(CCCNC2CC2)C(=O)N1[C@@H]3c1cccc(O)c1 (racemic) [Example 190, (3aSR,10RS)-2-(3-Cyclopropylamino-propyl)-6-ethoxy-10-(3-hydroxy-phenyl)-3a-methyl-3a,4,9,10-tetrahydro-2,9,10a-triaza-cyclopenta[b]fluorene-1,3-dione] | 39.8 to 251 nM
9 | CN1CCN(CCN2C(=O)N3[C@H](c4cccc(O)c4)c4[nH]c5ccc(OC(F)F)cc5c4C[C@@]3(C)C2=O)CC1 (racemic) [Example 294, (3aSR,10RS)-6-(1,1-Difluoro-methoxy)-10-(3-hydroxy-phenyl)-3a-methyl-2-[2-(4-methyl-piperazin-1-yl)-ethyl}-3a,4,9,10-tetrahydro-2,9,10a-triaza-cyclopenta[b]fluorene-1,3-dione] | 39.8 to 251 nM
10 | COc1cc2c3c([nH]c2cc1F)[C@@H](c1cccc(O)c1)N1C(=O)N(CCN(C)C)C(=O)[C@]1(C)C3 (racemic) [Example 255, (3aSR,10RS)-2-(2-Dimethylamino-ethyl)-7-fluoro-10-(3-hydroxy-phenyl)-6-methoxy-3a-methyl-3a,4,9,10-tetrahydro-2,9,10a-triaza-cyclopenta[b]fluorene-1,3-dione] | 39.8 to 251 nM
11 | C=CCNCCCN1C(=O)N2[C@H](c3cccc(O)c3)c3[nH]c4cc(F)c(Cl)cc4c3C[C@@]2(C)C1=O (racemic) [Example 465, (3aSR,10RS)-2-(3-Allylamino-propyl)-6-chloro-7-fluoro-10-(3-hydroxy-phenyl)-3a-methyl-3a,4,9,10-tetrahydro-2,9,10a-triaza-cyclopenta[b]fluorene-1,3-dione] | 39.8 to 251 nM
12 | CCN(C)CCCN1C(=O)N2[C@H](c3cccc(O)c3)c3[nH]c4ccc(OC)cc4c3C[C@@]2(C)C1=O [Example 541, (3aS,10R)-2-[3-(Ethyl-methyl-amino)-propyl]-10-(3-hydroxy-phenyl)-6-methoxy-3a-methyl-3a,4,9,10-tetrahydro-2,9,10a-triaza-cyclopenta[b]fluorene-1,3-dione] | ≤ 39.8 nM
13 | CCN(CC)CCCN1C(=O)N2[C@H](c3cccc(O)c3)c3[nH]c4ccc(OC(F)F)cc4c3C[C@@]2(C)C1=O (racemic) [Example 176, (3aSR,10RS)-2-(3-Diethylamino-propyl)-6-(1,1-difluoro-methoxy)-10-(3-hydroxy-phenyl)-3a-methyl-3a,4,9,10-tetrahydro-2,9,10a-triaza-cyclopenta[b]fluorene-1,3-dione] | ≤ 39.8 nM
14 | CN(CCO)CCN1C(=O)N2[C@H](c3cccc(O)c3)c3[nH]c4ccc(Br)cc4c3C[C@@]2(C)C1=O (racemic) [Example 384, (3aSR,10RS)-6-Bromo-2-{2-[(2-hydroxy-ethyl)-methyl-amino]-ethyl}-10-(3-hydroxy-phenyl)-3a-methyl-3a,4,9,10-tetrahydro-2,9,10a-triaza-cyclopenta[b]fluorene-1,3-dione] | ≤ 39.8 nM
15 | C[C@@]12Cc3c([nH]c4ccc(OC(F)F)cc34)[C@@H](c3cccc(O)c3)N1C(=O)N(CCNCCO)C2=O (racemic) [Example 285, (3aSR,10RS)-6-(1,1-Difluoro-methoxy)-2-[2-(2-hydroxy-ethylamino)-ethyl]-10-(3-hydroxy-phenyl)-3a-methyl-3a,4,9,10-tetrahydro-2,9,10a-triaza-cyclopenta[b]fluorene-1,3-dione] | 39.8 to 251 nM
16 | C=CCNCCN1C(=O)N2[C@H](c3cccc(O)c3)c3[nH]c4cc(F)c(Cl)cc4c3C[C@@]2(C)C1=O (racemic) [Example 346, (3aSR,10RS)-2-(2-Allylamino-ethyl)-6-chloro-7-fluoro-10-(3-hydroxy-phenyl)-3a-methyl-3a,4,9,10-tetrahydro-2,9,10a-triaza-cyclopenta[b]fluorene-1,3-dione] | ≤ 39.8 nM
17 | CN1CCN(CCN2C(=O)N3[C@H](c4cccc(O)c4)c4[nH]c5ccc(Br)cc5c4C[C@@]3(C)C2=O)CC1 (racemic) [Example 386, (3aSR,10RS)-6-Bromo-10-(3-hydroxy-phenyl)-3a-methyl-2-[2-(4-methyl-piperazin-1-yl)-ethyl]-3a,4,9,10-tetrahydro-2,9,10a-triaza-cyclopenta[b]fluorene-1,3-dione] | ≤ 39.8 nM
18 | COCCNCCN1C(=O)N2[C@H](c3cccc(O)c3)c3[nH]c4ccc(Br)cc4c3C[C@@]2(C)C1=O (racemic) [Example 377, (3aSR,10RS)-6-Bromo-10-(3-hydroxy-phenyl)-2-[2-(2-methoxy-ethylamino)-ethyl]-3a-methyl-3a,4,9,10-tetrahydro-2,9,10a-triaza-cyclopenta[b]fluorene-1,3-dione] | ≤ 39.8 nM
19 | CCOc1ccc2[nH]c3c(c2c1)C[C@@]1(C)C(=O)N(CCN(CC)CC)C(=O)N1[C@@H]3c1cccc(O)c1 (racemic) [Example 162, (3aSR,10RS)-2-(2-Diethylamino-ethyl)-6-ethoxy-10-(3-hydroxy-phenyl)-3a-methyl-3a,4,9,10-tetrahydro-2,9,10a-triaza-cyclopenta[b]fluorene-1,3-dione] | 39.8 to 251 nM
20 | CC(=O)N1CCN(CCCN2C(=O)N3[C@H](c4cccc(O)c4)c4[nH]c5ccc(Br)cc5c4C[C@@]3(C)C2=O)CC1 (racemic) [Example 220, (3aSR,10RS)-2-[3-(4-Acetyl-piperazin-1-yl)-propyl]-6-bromo-10-(3-hydroxy-phenyl)-3a-methyl-3a,4,9,10-tetrahydro-2,9,10a-triaza-cyclopenta[b]fluorene-1,3-dione] | 39.8 to 251 nM
21 | CCNCCN1C(=O)N2[C@H](c3cccc(O)c3)c3[nH]c4ccc(OC(F)F)cc4c3C[C@@]2(C)C1=O (racemic) [Example 284, (3aSR,10RS)-6-(1,1-Difluoro-methoxy)-2-(2-ethylamino-ethyl)-10-(3-hydroxy-phenyl)-3a-methyl-3a,4,9,10-tetrahydro-2,9,10a-triaza-cyclopenta[b]fluorene-1,3-dione] | ≤ 39.8 nM
22 | CCNCCN1C(=O)N2[C@H](c3cccc(O)c3)c3[nH]c4ccc(OC)c(F)c4c3C[C@@]2(C)C1=O (racemic) [Example 407, (3aSR,10RS)-2-(2-Ethylamino-ethyl)-5-fluoro-10-(3-hydroxy-phenyl)-6-methoxy-3a-methyl-3a,4,9,10-tetrahydro-2,9,10a-triaza-cyclopenta[b]fluorene-1,3-dione] | 39.8 to 251 nM
23 | C=CCN(C)CCN1C(=O)N2[C@H](c3cccc(O)c3)c3[nH]c4ccc(OCC)cc4c3C[C@@]2(C)C1=O (racemic) [Example 300, (3aSR,10RS)-2-[2-(Allyl-methyl-amino)-ethyl]-6-ethoxy-10-(3-hydroxy-phenyl)-3a-methyl-3a,4,9,10-tetrahydro-2,9,10a-triaza-cyclopenta[b]fluorene-1,3-dione] | 39.8 to 251 nM
24 | COc1ccc2[nH]c3c(c2c1)C[C@@]1(C)C(=O)N(CCCNCC2CC2)C(=O)N1[C@@H]3c1cccc(O)c1 [Example 535, (3aS,10R)-2-[3-(Cyclopropylmethyl-amino)-propyl]-10-(3-hydroxy-phenyl)-6-methoxy-3a-methyl-3a,4,9,10-tetrahydro-2,9,10a-triaza-cyclopenta[b]fluorene-1,3-dione] | ≤ 39.8 nM
